# Test results as given in US9029337B2, “Modulation of factor 7 expression” (Isis Pharmaceuticals, Inc., priority 2007, dated 2015).
# Strand notation (5' to 3'): a small letter for the sugar, then the base; units joined by * are phosphorothioate-linked, units joined directly phosphodiester-linked; [ ] holds rarer units or linkages, { } end groups; capitals alone tell only the bases. e = 2'-O-(2-methoxyethyl) (MOE); [5mC] = 5-methylcytosine; d = 2'-deoxy (DNA)
# Columns and labels:
# Format in all cases: cell-based
# [1] = system: human Factor 7 mRNA; assay: Dose-dependent antisense inhibition of human Factor 7 in HepB3 cells, electroporation
# Procedure: (§1) The gapmers were also transfected via electroporation and their dose-dependent inhibition of human Factor 7 mRNA was measured. Cells were plated at a density of 20,000 cells per well and transfected via electroporation with 3.125 μM, 6.25 μM, 12.5 μM, 25 μM, 50 μM, and 100 μM concentrations of antisense oligonucleotide, as specified in Table 15. After a treatment period of approximately 16 hours, RNA was isolated from the cells and Factor 7 mRNA levels were measured by quantitative real-time PCR. Human Factor 7 primer probe set RTS 2927 was used to measure mRNA levels. Factor 7 mRNA levels were adjusted according to total RNA content, as measured by RIBOGREEN®. Results are presented as percent inhibition of Factor 7, relative to untreated control cells.
# as §1, with “Cells were” for “The gapmers were also transfected via electroporation and their dose-dependent inhibition of human Factor 7 mRNA was measured. Cells were”, “in […]. After a” for “in Table 15. After a”, “cells and human Factor 7” for “cells and Factor 7”
# [2] = system: human Factor 7 mRNA; assay: Dose-dependent antisense inhibition of human Factor 7 in HepB3 cells, lipofectin; conditions: HepB3 cells, approx. 16 hours (Table 14)
# Procedure, shortened: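 HepB3 cells (4,000/well) lipofectin-transfected with antisense oligonucleotide at 3.125 or 6.25 up to 100 nM for ~16 h. Factor 7 mRNA measured by real-time RT-PCR with primer probe set RTS 2927, adjusted to RIBOGREEN total RNA; expressed as percent inhibition versus untreated control cells.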
# [3] = system: human Factor 7 mRNA; assay: Antisense inhibition of human Factor 7 mRNA in HepB3 cells, 50 nM antisense oligonucleotide, lipofectin; conditions: for % Inhibition: Table 13 (microwalk), 50 nM, lipofectin, approximately 24 hours
# Procedure, shortened: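 After transfection of wells containing 4,000 cells, treatment ran for approximately 24 h. RIBOGREEN®-measured total RNA served for normalisation, and inhibition was calculated as a percentage of untreated control.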
# [4] = 3.125 μM, approx. 16 hours (Table 15, Example 7)
# [5] = 3.125 μM, approx. 16 hours (Table 16, Example 8 confirmation)
# [6] = 6.25 μM, approx. 16 hours (Table 15, Example 7)
# [7] = 6.25 μM, approx. 16 hours (Table 16, Example 8 confirmation)
# [8] = 12.5 μM, approx. 16 hours (Table 15, Example 7)
# [9] = 12.5 μM, approx. 16 hours (Table 16, Example 8 confirmation)
# [10] = 25 μM, approx. 16 hours (Table 15, Example 7)
# [11] = 25 μM, approx. 16 hours (Table 16, Example 8 confirmation)
# [12] = 50 μM, approx. 16 hours (Table 15, Example 7)
# [13] = 50 μM, approx. 16 hours (Table 16, Example 8 confirmation)
# [14] = 100 μM, approx. 16 hours (Table 15, Example 7)
# [15] = 100 μM, approx. 16 hours (Table 16, Example 8 confirmation)
Substance,"percent inhibition of Factor 7 mRNA, relative to untreated control cells [1, 4] [%]","percent inhibition of Factor 7 mRNA, relative to untreated control cells [1, 5] [%]","percent inhibition of Factor 7 mRNA, relative to untreated control cells [1, 6] [%]","percent inhibition of Factor 7 mRNA, relative to untreated control cells [1, 7] [%]","percent inhibition of Factor 7 mRNA, relative to untreated control cells [1, 8] [%]","percent inhibition of Factor 7 mRNA, relative to untreated control cells [1, 9] [%]","percent inhibition of Factor 7 mRNA, relative to untreated control cells [1, 10] [%]","percent inhibition of Factor 7 mRNA, relative to untreated control cells [1, 11] [%]","percent inhibition of Factor 7 mRNA, relative to untreated control cells [1, 12] [%]","percent inhibition of Factor 7 mRNA, relative to untreated control cells [1, 13] [%]","percent inhibition of Factor 7 mRNA, relative to untreated control cells [1, 14] [%]","percent inhibition of Factor 7 mRNA, relative to untreated control cells [1, 15] [%]","percent inhibition of Factor 7 mRNA, relative to untreated control cells ([2]; 3.125 nM) [%]","percent inhibition of Factor 7 mRNA, relative to untreated control cells ([2]; 12.5 nM) [%]","percent inhibition of Factor 7 mRNA, relative to untreated control cells ([2]; 25 nM) [%]","percent inhibition of Factor 7 mRNA, relative to untreated control cells ([2]; 50 nM) [%]","percent inhibition of Factor 7 mRNA, relative to untreated control cells ([2]; 100 nM) [%]","percent inhibition of Factor 7 mRNA, relative to untreated control cells [2] [%]","% Inhibition of human Factor 7 mRNA levels ([3]; gapmers targeted to nucleobases 4868 to 4899 of SEQ ID NO: 1, Table 8) [%]",% Inhibition [3] [%]
422142 (antisense eG*eA*eG*eT*eT*d[5mC]*dT*dG*d[5mC]*dA*dG*dG*dA*dG*d[5mC]*eG*eG*e[5mC]*e[5mC]*eT) [compound 422142],26,34,47,47,63,62,67,67,77,65,78,65,16,51,66,72,68,34,73,–
422150 (antisense eG*e[5mC]*eA*dT*dG*dG*dT*dG*dA*dT*dG*d[5mC]*dT*dT*d[5mC]*dT*dG*eA*eA*eT) [compound 422150],17,0,20,31,40,53,54,67,68,77,83,86,9,38,59,79,87,23,–,74
422152 (antisense eA*eT*eG*d[5mC]*dA*dT*dG*dG*dT*dG*dA*dT*dG*d[5mC]*dT*dT*d[5mC]*eT*eG*eA) [compound 422152],14,–,22,–,32,–,44,–,65,–,76,–,18,47,67,83,89,29,–,74
